Test results as given in patent US12370192B2, “Azole-fused pyridazin-3(2H)-one derivatives” (TAKEDA PHARMACEUTICAL COMPANY LIMITED, priority 2019, dated 2025).

Experiments:
human GPR139 receptor [1] = molecular target: T1, human GPR139 receptor (Homo sapiens, UniProt Q6DWJ6); assay: GPR139 Competition Binding (membrane-based, tritium-labeled ligand); details: T-REx-CHO membranes with human GPR139; 6.5 nM tritium-labeled ligand; 11-point curve, 30 μM maximum concentration; read-out: GPR139 Binding Affinity (pKi) (converted)
T1 construct: expressed in transfected cells; host or cells: T-REx-CHO (Thermo Fisher Scientific), doxycycline-induced
T1 sequence (Q6DWJ6 1-353): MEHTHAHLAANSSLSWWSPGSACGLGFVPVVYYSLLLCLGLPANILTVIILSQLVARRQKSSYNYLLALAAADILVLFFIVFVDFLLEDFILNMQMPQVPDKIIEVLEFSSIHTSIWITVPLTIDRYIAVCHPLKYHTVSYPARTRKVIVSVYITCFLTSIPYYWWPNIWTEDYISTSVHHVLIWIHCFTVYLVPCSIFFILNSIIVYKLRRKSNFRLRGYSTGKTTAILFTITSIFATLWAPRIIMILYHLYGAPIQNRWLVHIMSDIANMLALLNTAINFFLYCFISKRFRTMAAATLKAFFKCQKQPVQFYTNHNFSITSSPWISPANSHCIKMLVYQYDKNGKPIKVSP
Method in brief: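 Membranes came from doxycycline-induced T-REx-CHO cells expressing human GPR139. They were incubated 20 min at room temperature with 6.5 nM tritiated ligand and compound (11 points, top 30 μM) in HEPES pH 7.3 buffer with MgCl2/CaCl2. Filter-bound counts gave Ki by four-parameter fit, reported as pKi.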

human GPR139 receptor [2] = molecular target: T1, human GPR139 receptor; assay: Measurement of GPR139 Activation Via Calcium Signaling (FLIPR, T-REx-CHO cells); type: cell-based; details: T-REx-CHO cells stably expressing human GPR139, 11-point dose response, 10 μM maximum concentration, read-out: GPR139 Potency (pEC50) (converted)
Method in brief: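 T-REx-CHO cells stably carrying human GPR139 under tetracycline control, induced with 2 μg/mL doxycycline for 17 h at 37 °C, loaded 40 min with Calcium 5 dye plus probenecid in HBSS/HEPES pH 7.4. Agonist added as 11-point series (10 μM top); fluorescence read 1 min; pEC50 from four-parameter fit.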

Ki (human GPR139 receptor [1])	EC50 (human GPR139 receptor [2])	SMILES
204 nM	132 nM	Cc1nn(C)c2c(C)nn(CC(=O)N[C@@H](C)c3ccc(C(F)(F)F)cc3)c(=O)c12 [Example 114, (S)—N-(1-(4-(trifluoromethyl)phenyl)ethyl)-2-(1,3,7-trimethyl-4-oxo-1,4-dihydro-5H-pyrazolo[3,4-d]pyridazin-5-yl)acetamide]
355 nM	26.3 nM	Cc1nn(C)c2cnn(CC(=O)N[C@@H](C)c3ccc(C(F)(F)F)cc3)c(=O)c12 [Example 37, (S)-2-(1,3-dimethyl-4-oxo-1,4-dihydro-5H-pyrazolo[3,4-d]pyridazin-5-yl)-N-(1-(4-(trifluoromethyl)phenyl)ethyl)acetamide]
229 nM	36.3 nM	Cc1ccc([C@H](C)NC(=O)Cn2nc(C)c3cnn(C)c3c2=O)cc1 [Example 39, (S)-2-(1,4-dimethyl-7-oxo-1,7-dihydro-6-pyrazolo[3,4-d]pyridazin-6-yl)-N-(1-(p-totyl)ethyl)acetamide]
479 nM	214 nM	Cc1nn(C(C)C)c2c(C)nn(CC(=O)N[C@@H](C)c3ccc(C(F)(F)F)cc3)c(=O)c12 [Example 56, (S)-2-(1-isopropyl-3,7-dimethyl-4-oxo-1,4-dihydro-5H-pyrazolo[3,4-d]pyridazin-5-yl)-N-(1-(4-(trifluoromethyl)phenyl)ethyl)acetamide]
178 nM	41.7 nM	Cc1ccc([C@H](C)NC(=O)Cn2nc(C)c3c(C)nn(C)c3c2=O)cc1 [Example 20, (S)—N-(1-(p-tolyl)ethyl)-2-(1,3,4-trimethyl-7-oxo-1,7-dihydro-6H-pyrazolo[3,4-d]pyridazin-6-yl)acetamide]
263 nM	617 nM	Cc1nn(C)c2c(C)nn(CC(=O)N[C@@H](C)c3ccc(OC(F)(F)F)cc3)c(=O)c12 [Example 112, (S)—N-(1-(4-(trifluoromethoxy)phenyl)ethyl)-2-(1,3,7-trimethyl-4-oxo-1,4-dihydro-5H-pyrazolo[3,4-d]pyridazin-5-yl)acetamide]
1450 nM	2140 nM	COc1ccc([C@H](C)NC(=O)Cn2nc(C)c3c(c(C)nn3C)c2=O)cc1 [Example 123, (S)—N-(1-(4-methoxyphenyl)ethyl)-2-(1,3,7-trimethyl-4-oxo-1,4-dihydro-5H-pyrazolo[3,4-d]pyridazin-5-yl)acetamide]
219 nM	240 nM	Cc1ccc([C@H](C)NC(=O)Cn2ncc3c(C)nn(C)c3c2=O)cc1 [Example 27, (S)-2-(1,3-dimethyl-7-oxo-1,7-dihydro-6H-pyrazolo[3,4-d]pyridazin-6-yl)-N-(1-(p-tolyl)ethyl)acetamide]
871 nM	56.2 nM	COc1ccc([C@H](C)NC(=O)Cn2nc(C)c3cnn(-c4ccccc4)c3c2=O)cc1 [Example 2, (S)—N-(1-(4-methoxyphenyl)ethyl)-2-(4-methyl-7-oxo-1-phenyl-1,7-dihydro-6H-pyrazolo[3,4-d]pyridazin-6-yl)acetamide]

The next lines start with the molecule.

SMILES	Ki (human GPR139 receptor [1])	EC50 (human GPR139 receptor [2])
Cc1cc(Cl)ccc1[C@H](C)NC(=O)Cn1ncc2c(c(C)cn2C2CC2)c1=O [Example 63, (S)—N-(1-(4-chloro-2-methylphenyl)ethyl)-2-(1-cyclopropyl-3-methyl-4-oxo-1,4-dihydro-5H-pyrrolo[2,3-d]pyridazin-5-yl)acetamide]	2 nM	85.1 nM
Cc1ccc([C@H](C)NC(=O)Cn2ncc3c(c(C(F)(F)F)nn3C)c2=O)c(F)c1 [Example 170, (S)—N-(1-(2-fluoro-4-methylphenyl)ethyl)-2-(1-methyl-4-oxo-3-(trifluoromethyl)-1,4-dihydro-5H-pyrazolo[3,4-d]pyridazin-5-yl)acetamide]	20.9 nM	72.4 nM
[2H]C([2H])([2H])c1ccc([C@H](C)NC(=O)Cn2ncc3c(c(C)nn3C(C)C)c2=O)cc1 [Example 168, (S)-2-(1-isopropyl-3-methyl-4-oxo-1,4-dihydro-5H-pyrazolo[3,4-d]pyridazin-5-yl)-N-(1-(4-(Methyl-d3)phenyl)ethyl)acetamide]	380 nM	43.7 nM
Cc1ccc([C@H](C)NC(=O)Cn2ncc3c(c(C(C)C)nn3C)c2=O)cc1 [Example 51, (S)-2-(3-isopropyl-1-methyl-4-oxo-1,4-dihydro-5H-pyrazolo[3,4-d]pyridazin-5-yl)-N-(1-(p-tolyl)ethyl)acetamide]	135 nM	32.4 nM
Cc1nn(CC(=O)N[C@@H](C)c2ccc(OC(F)(F)F)cc2)c(=O)c2c1cnn2C(C)(C)C [Example 15, (S)-2-(1-(tert-butyl)-4-methyl-7-oxo-1,7-dihydro-6H-pyrazolo[3,4-d]pyridazin-6-yl)-N-(1-(4-(trifluoromethoxy)phenyl)ethyl)acetamide]	57.5 nM	617 nM
Cc1ccc([C@H](C)NC(=O)Cn2ncc3c(C)nn(C4CC4)c3c2=O)cc1 [Example 28, (S)-2-(1-cyclopropyl-3-methyl-7-oxo-1,7-dihydro-6H-pyrazolo[3,4-d]pyridazin-6-yl)-N-(1-(p-tolyl)ethyl)acetamide]	32.4 nM	52.5 nM
COc1ccc([C@H](C)NC(=O)Cn2ncc3c(c(C)nn3C3CC3)c2=O)cc1C [Example 31, (S)-2-(1-cyclopropyl-3-methyl-4-oxo-1,4-dihydro-5H-pyrazolo[3,4-d]pyridazin-5-yl)-N-(1-(4-methoxy-3-methylphenyl)ethyl)acetamide]	11700 nM	57.5 nM
Cc1nn(C23CC(C2)C3)c2cnn(CC(=O)N[C@@H](C)c3ccc(C(F)(F)F)cc3)c(=O)c12 [Example 156, (S)-2-(1-(bicyclo[1.1.1]pentan-1-yl)-3-methyl-4-oxo-1,4-dihydro-5H-pyrazolo[3,4-d]pyridazin-5-yl)-N-(1-(4-(trifluoromethyl)phenyl)ethyl)acetamide]	331 nM	107 nM
Cc1nn(C2CC2)c2c(=O)n(CC(=O)N[C@@H](C)c3ccc(C(F)(F)F)cn3)ncc12 [Example 58, (S)-2-(1-cyclopropyl-3-methyl-7-oxo-1,7-dihydro-6H-pyrazolo[3,4-d]pyridazin-6-yl)-N-(1-(5-(trifluoromethyl)pyridin-2-yl)ethyl)acetamide]	1350 nM	74.1 nM
Cc1nn(CC(=O)N[C@@H](C)c2ccc(C(F)(F)F)cc2)c(=O)c2c1cnn2C(C)(C)C [Example 14, (S)-2-(1-(tert-butyl)-4-methyl-7-oxo-1,7-dihydro-6H-pyrazolo[3,4-d]pyridazin-6-yl)-N-(1-(4-(trifluoromethyl)phenyl)ethyl)acetamide]	37.2 nM	617 nM
Cc1nn(CC(=O)N[C@@H](C)c2ccc(F)cc2Cl)c(=O)c2c1c(C)nn2C1CC1 [Example 71, (S)—N-(1-(2-chloro-4-fluorophenyl)ethyl)-2-(1-cyclopropyl-3,4-dimethyl-7-oxo-1,7-dihydro-6H-pyrazolo[3,4-d]pyridazin-6-yl)acetamide]	0.398 nM	93.3 nM
C[C@H](NC(=O)Cn1ncc2ccn(C)c2c1=O)c1ccccc1 [Example 153, (S)-2-(1-methyl-7-oxo-1,7-dihydro-6H-pyrrolo[2,3-d]pyridazin-6-yl)-N-(1-phenylethyl)acetamide]	1740 nM	89.1 nM
Cc1ccc([C@H](C)NC(=O)Cn2nc(C)c3cnn(-c4ccccc4)c3c2=O)cc1 [Example 1]	55 nM	51.3 nM
CC(C)c1nn(C)c2cnn(CC(=O)N[C@@H](C)c3ccc(OC(F)(F)F)cc3)c(=O)c12 [Example 50, (S)-2-(3-isopropyl-1-methyl-4-oxo-1,4-dihydro-5H-pyrazolo[3,4-d]pyridazin-5-yl)-N-(1-(4-(trifluoromethoxy)phenyl)ethyl)acetamide]	126 nM	166 nM
Cc1nn(C(C)C)c2cnn(CC(=O)N[C@@H](C)c3ccc(OC(F)(F)F)cc3)c(=O)c12 [Example 93, (S)-2-(1-isopropyl-3-methyl-4-oxo-1,4-dihydro-5H-pyrazolo[3,4-d]pyridazin-5-yl)-N-(1-(4-(trifluoromethoxy)phenyl)ethyl)acetamide]	389 nM	234 nM
Cc1nn(C2CC2)c2cnn(CC(=O)N[C@@H](C)c3cc(F)cc(F)c3)c(=O)c12 [Example 135, (S)-2-(1-cyclopropyl-3-methyl-4-oxo-1,4-dihydro-5H-pyrazolo[3,4-d]pyridazin-5-yl)-N-(1-(3,5-difluorophenyl)ethyl)acetamide]	132 nM	14.1 nM
C[C@H](NC(=O)Cn1ncc2c(c(C(F)(F)F)nn2C)c1=O)c1ccc(C(F)(F)F)cc1 [Example 172, (S)-2-(1-methyl-4-oxo-3-(trifluoromethyl)-1,4-dihydro-5H-pyrazolo[3,4-d]pyridazin-5-yl)-N-(1-(4-(trifluoromethyl)phenyl)ethyl)acetamide]	178 nM	93.3 nM
